Measurements from the supplement of paper PMC10307832.

Experiments:
Experiment in all cases: relative viability (nuclei count vs DMSO), 5 days (fraction); higher = more cells survive
H3255 = tested on: H3255
Method in brief: (§1)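 Relative viability is defined as nuclei in treated wells over nuclei in vehicle wells. Duplicate plates were run and medians reported. Lung cancer cell lines in 1536-well plates were dosed by pin tool one day after seeding, with one drug or with a fixed anchor-drug dose plus five library-drug doses (not always all listed) in √10 steps, and nuclei were counted after 5 days.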

PC-14 = tested on: PC-14
Method in brief: as §1

NCI-H727 = tested on: NCI-H727
Method in brief: as §1

NCI-H460 = tested on: NCI-H460
Method in brief: as §1

LCLC-103H = tested on: LCLC-103H
Method in brief: as §1

NCI-H1793 = tested on: NCI-H1793
Method in brief: as §1

201T = tested on: 201T
Method in brief: as §1

NCI-H2228 = tested on: NCI-H2228
Method in brief: as §1

LU99A = tested on: LU99A
Method in brief: as §1

SW 1573 = tested on: SW 1573
Method in brief: as §1

NCI-H596 = tested on: NCI-H596
Method in brief: as §1

A-427 = tested on: A-427
Method in brief: as §1

NCI-H1650 = tested on: NCI-H1650
Method in brief: as §1

NCI-H2347 = tested on: NCI-H2347
Method in brief: as §1

LK-2 = tested on: LK-2
Method in brief: as §1

HCC-44 = tested on: HCC-44
Method in brief: as §1

NCI-H23 = tested on: NCI-H23
Method in brief: as §1

SW 900 = tested on: SW 900
Method in brief: as §1

LC-2-ad = tested on: LC-2-ad
Method in brief: as §1

COR-L23 = tested on: COR-L23
Method in brief: as §1

LCLC-97TM1 = tested on: LCLC-97TM1
Method in brief: as §1

## Nc1ccn([C@@H]2O[C@H](CO)[C@@H](O)[C@@H]2O)c(=O)n1 [Cytarabine] + CC(=O)Nc1cccc(-n2c(=O)n(C3CC3)c(=O)c3c(Nc4ccc(I)cc4F)n(C)c(=O)c(C)c32)c1 [Trametinib] (partner 0.02 µM)
H3255; first compound 0.005 µM
  relative viability: 0.637
H3255; first compound 0.01581 µM
  relative viability: 0.652
H3255; first compound 0.05 µM
  relative viability: 0.639
H3255; first compound 0.1581 µM
  relative viability: 0.559
H3255; first compound 0.5 µM
  relative viability: 0.533
PC-14; first compound 0.005 µM
  relative viability: 0.712
PC-14; first compound 0.01581 µM
  relative viability: 0.669
PC-14; first compound 0.05 µM
  relative viability: 0.515
PC-14; first compound 0.1581 µM
  relative viability: 0.0885
PC-14; first compound 0.5 µM
  relative viability: 0.079
NCI-H727; first compound 0.005 µM
  relative viability: 0.348
NCI-H727; first compound 0.01581 µM
  relative viability: 0.374
NCI-H727; first compound 0.05 µM
  relative viability: 0.354
NCI-H727; first compound 0.1581 µM
  relative viability: 0.336
NCI-H727; first compound 0.5 µM
  relative viability: 0.329
NCI-H460; first compound 0.005 µM
  relative viability: 0.13
NCI-H460; first compound 0.01581 µM
  relative viability: 0.111
NCI-H460; first compound 0.05 µM
  relative viability: 0.103
NCI-H460; first compound 0.1581 µM
  relative viability: 0.0544
NCI-H460; first compound 0.5 µM
  relative viability: 0.0417
LCLC-103H; first compound 0.005 µM
  relative viability: 0.692
LCLC-103H; first compound 0.01581 µM
  relative viability: 0.687
LCLC-103H; first compound 0.05 µM
  relative viability: 0.671
LCLC-103H; first compound 0.1581 µM
  relative viability: 0.682
LCLC-103H; first compound 0.5 µM
  relative viability: 0.742
NCI-H1793; first compound 0.005 µM
  relative viability: 0.489
NCI-H1793; first compound 0.01581 µM
  relative viability: 0.405
NCI-H1793; first compound 0.05 µM
  relative viability: 0.398
NCI-H1793; first compound 0.1581 µM
  relative viability: 0.266
NCI-H1793; first compound 0.5 µM
  relative viability: 0.258
201T; first compound 0.005 µM
  relative viability: 0.728
201T; first compound 0.01581 µM
  relative viability: 0.724
201T; first compound 0.05 µM
  relative viability: 0.76
201T; first compound 0.1581 µM
  relative viability: 0.709
201T; first compound 0.5 µM
  relative viability: 0.694
NCI-H2228; first compound 0.005 µM
  relative viability: 0.288
NCI-H2228; first compound 0.01581 µM
  relative viability: 0.171
NCI-H2228; first compound 0.05 µM
  relative viability: 0.158
NCI-H2228; first compound 0.1581 µM
  relative viability: 0.127
NCI-H2228; first compound 0.5 µM
  relative viability: 0.116
LU99A; first compound 0.005 µM
  relative viability: 0.588
LU99A; first compound 0.01581 µM
  relative viability: 0.447
LU99A; first compound 0.05 µM
  relative viability: 0.497
LU99A; first compound 0.1581 µM
  relative viability: 0.549
LU99A; first compound 0.5 µM
  relative viability: 0.544
SW 1573; first compound 0.005 µM
  relative viability: 0.509
SW 1573; first compound 0.01581 µM
  relative viability: 0.482
SW 1573; first compound 0.05 µM
  relative viability: 0.415
SW 1573; first compound 0.1581 µM
  relative viability: 0.177
SW 1573; first compound 0.5 µM
  relative viability: 0.0822
NCI-H596; first compound 0.005 µM
  relative viability: 0.812
NCI-H596; first compound 0.01581 µM
  relative viability: 0.759
NCI-H596; first compound 0.05 µM
  relative viability: 0.69
NCI-H596; first compound 0.1581 µM
  relative viability: 0.5
NCI-H596; first compound 0.5 µM
  relative viability: 0.499
A-427; first compound 0.005 µM
  relative viability: 0.714
A-427; first compound 0.01581 µM
  relative viability: 0.616
A-427; first compound 0.05 µM
  relative viability: 0.381
A-427; first compound 0.1581 µM
  relative viability: 0.273
A-427; first compound 0.5 µM
  relative viability: 0.225
NCI-H1650; first compound 0.005 µM
  relative viability: 0.446
NCI-H1650; first compound 0.01581 µM
  relative viability: 0.419
NCI-H1650; first compound 0.05 µM
  relative viability: 0.452
NCI-H1650; first compound 0.1581 µM
  relative viability: 0.24
NCI-H1650; first compound 0.5 µM
  relative viability: 0.158
NCI-H2347; first compound 0.005 µM
  relative viability: 0.277
NCI-H2347; first compound 0.01581 µM
  relative viability: 0.309
NCI-H2347; first compound 0.05 µM
  relative viability: 0.282
NCI-H2347; first compound 0.1581 µM
  relative viability: 0.236
NCI-H2347; first compound 0.5 µM
  relative viability: 0.257
LK-2; first compound 0.005 µM
  relative viability: 1.01
LK-2; first compound 0.01581 µM
  relative viability: 0.701
LK-2; first compound 0.05 µM
  relative viability: 0.479
LK-2; first compound 0.1581 µM
  relative viability: 0.226
LK-2; first compound 0.5 µM
  relative viability: 0.268
HCC-44; first compound 0.005 µM
  relative viability: 1.08
HCC-44; first compound 0.01581 µM
  relative viability: 1.03
HCC-44; first compound 0.05 µM
  relative viability: 1.08
HCC-44; first compound 0.1581 µM
  relative viability: 1.04
HCC-44; first compound 0.5 µM
  relative viability: 1.01
NCI-H23; first compound 0.005 µM
  relative viability: 0.441
NCI-H23; first compound 0.01581 µM
  relative viability: 0.355
NCI-H23; first compound 0.05 µM
  relative viability: 0.223
NCI-H23; first compound 0.1581 µM
  relative viability: 0.165
NCI-H23; first compound 0.5 µM
  relative viability: 0.14
SW 900; first compound 0.005 µM
  relative viability: 0.83
SW 900; first compound 0.01581 µM
  relative viability: 0.653
SW 900; first compound 0.05 µM
  relative viability: 0.662
SW 900; first compound 0.1581 µM
  relative viability: 0.23
SW 900; first compound 0.5 µM
  relative viability: 0.243
LC-2-ad; first compound 0.005 µM
  relative viability: 0.896
LC-2-ad; first compound 0.01581 µM
  relative viability: 0.908
LC-2-ad; first compound 0.05 µM
  relative viability: 0.893
LC-2-ad; first compound 0.1581 µM
  relative viability: 0.708
LC-2-ad; first compound 0.5 µM
  relative viability: 0.47
COR-L23; first compound 0.005 µM
  relative viability: 0.71
COR-L23; first compound 0.01581 µM
  relative viability: 0.529
COR-L23; first compound 0.05 µM
  relative viability: 0.546
COR-L23; first compound 0.1581 µM
  relative viability: 0.304
COR-L23; first compound 0.5 µM
  relative viability: 0.203
LCLC-97TM1; first compound 0.005 µM
  relative viability: 0.191
LCLC-97TM1; first compound 0.01581 µM
  relative viability: 0.159
LCLC-97TM1; first compound 0.05 µM
  relative viability: 0.173
LCLC-97TM1; first compound 0.1581 µM
  relative viability: 0.136
LCLC-97TM1; first compound 0.5 µM
  relative viability: 0.135
